Measurements taken from patent publication EP4268823A1, “COMPOUND FOR TREATING NEUROINFLAMMATION” (Universitätsklinikum Hamburg-Eppendorf, priority 2022, dated 2023).

Target: T1, G9a (Mus musculus, UniProt Q9Z148)
T1 construct: UNC0642 pre-treated primary neuronal cultures compared to respective controls; endogenous in cells; host or cells: primary mouse cortical neuronal cultures (C57BL/6J embryos)
T1 sequence (Q9Z148 1-1263): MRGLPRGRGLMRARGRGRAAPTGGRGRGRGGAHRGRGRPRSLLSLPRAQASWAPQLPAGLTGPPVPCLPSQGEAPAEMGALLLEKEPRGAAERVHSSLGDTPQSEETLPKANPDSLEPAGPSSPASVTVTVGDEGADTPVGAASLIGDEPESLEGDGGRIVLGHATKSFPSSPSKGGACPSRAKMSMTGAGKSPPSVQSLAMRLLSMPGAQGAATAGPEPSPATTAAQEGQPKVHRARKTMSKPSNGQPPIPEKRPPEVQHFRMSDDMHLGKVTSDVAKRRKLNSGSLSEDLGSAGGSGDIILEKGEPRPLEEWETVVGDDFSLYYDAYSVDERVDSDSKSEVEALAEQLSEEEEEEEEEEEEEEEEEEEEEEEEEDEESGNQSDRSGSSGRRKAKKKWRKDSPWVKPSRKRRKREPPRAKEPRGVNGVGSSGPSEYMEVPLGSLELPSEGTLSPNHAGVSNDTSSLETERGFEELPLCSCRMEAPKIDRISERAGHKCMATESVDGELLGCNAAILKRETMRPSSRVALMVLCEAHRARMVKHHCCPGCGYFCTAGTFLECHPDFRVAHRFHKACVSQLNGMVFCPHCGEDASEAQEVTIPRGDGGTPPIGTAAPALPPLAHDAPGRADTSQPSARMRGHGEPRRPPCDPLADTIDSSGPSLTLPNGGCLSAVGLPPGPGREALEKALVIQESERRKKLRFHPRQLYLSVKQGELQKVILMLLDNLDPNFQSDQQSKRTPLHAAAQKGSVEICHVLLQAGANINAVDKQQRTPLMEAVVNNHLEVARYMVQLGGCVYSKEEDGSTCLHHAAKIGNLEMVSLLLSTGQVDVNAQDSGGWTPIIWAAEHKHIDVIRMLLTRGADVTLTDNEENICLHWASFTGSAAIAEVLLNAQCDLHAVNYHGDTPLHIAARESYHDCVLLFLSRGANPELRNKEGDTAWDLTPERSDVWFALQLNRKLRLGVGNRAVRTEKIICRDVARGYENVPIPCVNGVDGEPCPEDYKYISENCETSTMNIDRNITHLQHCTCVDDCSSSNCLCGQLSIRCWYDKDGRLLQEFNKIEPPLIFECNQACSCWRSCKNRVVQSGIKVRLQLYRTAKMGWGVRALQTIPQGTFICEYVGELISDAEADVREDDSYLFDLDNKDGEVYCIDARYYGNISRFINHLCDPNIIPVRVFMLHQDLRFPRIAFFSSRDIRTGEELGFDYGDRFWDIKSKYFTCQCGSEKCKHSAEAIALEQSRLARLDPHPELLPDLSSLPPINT
Experiment: Flow cytometry of H3K9me2 in spinal cord neuronal nuclei of EAE mice
Type: in vivo
Details: EAE animals, 5 mg kg-1 UNC0642

Question: COc1cc2c(NC3CCN(C(C)C)CC3)nc(N3CCC(F)(F)CC3)nc2cc1OCCCN1CCCC1 [UNC0642, 2-(4,4-difluoropiperidin-1-yl)-6-methoxy-N-[1-(propan-2-yl)piperidin-4-yl]-7-[3-(pyrrolidin-1-yl)propoxy]quinazolin-4-amine] was tested. Which “H3K9me2 levels in neuronal nuclei” value did it give?
Answer: complete normalization of H3K9me2 levels
